From patent publication US20090311217A1, “3-SUBSTITUTED-1H-INDOLE COMPOUNDS, THEIR USE AS MTOR KINASE AND PI3 KINASE INHIBITORS, AND THEIR SYNTHESES” (priority 2008, published 2009) come the findings set out here.

pIC50: −log10 of the molar value. A value given as a limit tells only on which side of the number the result lay.

Holding throughout (format): biochemical
One assay concerns the target PI3K-alpha (Homo sapiens, UniProt P42336). Kind of assay: PI3K-alpha fluorescence polarization assay. Conditions: read-out: PI3Kα Avg. IC50.
Another assay has as its target T1, human TOR (Homo sapiens, UniProt P42345).
T1 construct: FLAG
Put plainly: mTOR enzyme assay (DELFIA, His6-S6K substrate). Conditions: read-out: mTOR Kinase Avg. IC50.

Another assay has as its target PI3K-gamma (Homo sapiens, UniProt P48736). Put plainly: PI3K-gamma fluorescence polarization assay. To be noted: PI3Kγ Avg. IC50. The method, boiled down:
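Each isoform (5 ng) phosphorylated 2.5 μM diC8-PI(4,5)P2 at 25 μM ATP for one hour at 25° C in the presence of inhibitor. Reactions were then stopped with EDTA, and product was detected by fluorescence polarization using a GST-GRP1 PH domain and a BODIPY-TMR-labelled IP4 tracer.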

Sequence of PI3K-alpha (P42336 whole entry, species assumed): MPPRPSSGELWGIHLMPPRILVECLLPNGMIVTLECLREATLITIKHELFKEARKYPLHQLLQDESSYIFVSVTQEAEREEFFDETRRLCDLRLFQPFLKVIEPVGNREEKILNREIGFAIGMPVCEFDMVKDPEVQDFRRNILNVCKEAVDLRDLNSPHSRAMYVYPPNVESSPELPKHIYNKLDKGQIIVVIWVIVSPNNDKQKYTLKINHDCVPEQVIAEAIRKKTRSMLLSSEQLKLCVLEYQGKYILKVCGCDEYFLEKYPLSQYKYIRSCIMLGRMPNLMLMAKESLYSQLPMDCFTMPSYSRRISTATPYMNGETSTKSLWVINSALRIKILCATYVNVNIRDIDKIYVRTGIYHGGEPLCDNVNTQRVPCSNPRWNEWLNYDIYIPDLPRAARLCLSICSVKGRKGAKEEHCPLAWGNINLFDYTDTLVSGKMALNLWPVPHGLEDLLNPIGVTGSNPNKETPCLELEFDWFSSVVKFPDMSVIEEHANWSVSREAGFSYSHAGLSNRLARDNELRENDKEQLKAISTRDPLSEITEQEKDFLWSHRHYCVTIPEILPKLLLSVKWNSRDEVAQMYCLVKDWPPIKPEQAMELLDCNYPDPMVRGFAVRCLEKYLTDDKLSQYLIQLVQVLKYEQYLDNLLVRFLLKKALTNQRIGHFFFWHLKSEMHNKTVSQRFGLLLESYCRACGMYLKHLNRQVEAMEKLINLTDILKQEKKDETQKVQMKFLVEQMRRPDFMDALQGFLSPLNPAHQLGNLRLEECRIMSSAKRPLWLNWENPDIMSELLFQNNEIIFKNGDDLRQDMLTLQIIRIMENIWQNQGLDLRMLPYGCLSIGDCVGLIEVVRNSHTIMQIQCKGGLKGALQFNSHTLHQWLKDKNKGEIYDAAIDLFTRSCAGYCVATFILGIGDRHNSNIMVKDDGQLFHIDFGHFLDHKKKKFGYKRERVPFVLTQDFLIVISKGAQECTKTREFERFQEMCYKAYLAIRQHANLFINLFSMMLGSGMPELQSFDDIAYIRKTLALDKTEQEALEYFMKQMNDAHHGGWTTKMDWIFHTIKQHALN
Sequence of PI3K-alpha (P27986 whole entry partner, species assumed): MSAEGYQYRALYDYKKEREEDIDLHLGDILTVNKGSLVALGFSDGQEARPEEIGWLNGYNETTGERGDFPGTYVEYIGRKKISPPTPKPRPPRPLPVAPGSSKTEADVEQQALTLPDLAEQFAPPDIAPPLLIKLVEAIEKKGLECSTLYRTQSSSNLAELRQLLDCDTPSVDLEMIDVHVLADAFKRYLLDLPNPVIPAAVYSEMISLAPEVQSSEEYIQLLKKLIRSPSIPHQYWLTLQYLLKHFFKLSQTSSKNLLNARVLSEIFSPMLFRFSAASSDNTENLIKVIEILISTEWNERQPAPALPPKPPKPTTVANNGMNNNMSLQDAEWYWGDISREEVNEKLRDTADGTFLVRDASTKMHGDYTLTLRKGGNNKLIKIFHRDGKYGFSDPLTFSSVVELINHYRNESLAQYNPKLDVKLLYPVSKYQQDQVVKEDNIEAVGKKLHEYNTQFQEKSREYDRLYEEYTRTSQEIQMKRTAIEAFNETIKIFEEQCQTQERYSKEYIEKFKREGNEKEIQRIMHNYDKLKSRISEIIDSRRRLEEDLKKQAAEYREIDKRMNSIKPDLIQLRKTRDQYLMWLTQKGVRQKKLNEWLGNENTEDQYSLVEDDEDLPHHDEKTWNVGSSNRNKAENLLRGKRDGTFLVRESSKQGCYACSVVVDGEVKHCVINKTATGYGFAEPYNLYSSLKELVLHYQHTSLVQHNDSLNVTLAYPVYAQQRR
Sequence of PI3K-gamma (P48736 whole entry, species assumed, the tested form may be a part, canonical isoform): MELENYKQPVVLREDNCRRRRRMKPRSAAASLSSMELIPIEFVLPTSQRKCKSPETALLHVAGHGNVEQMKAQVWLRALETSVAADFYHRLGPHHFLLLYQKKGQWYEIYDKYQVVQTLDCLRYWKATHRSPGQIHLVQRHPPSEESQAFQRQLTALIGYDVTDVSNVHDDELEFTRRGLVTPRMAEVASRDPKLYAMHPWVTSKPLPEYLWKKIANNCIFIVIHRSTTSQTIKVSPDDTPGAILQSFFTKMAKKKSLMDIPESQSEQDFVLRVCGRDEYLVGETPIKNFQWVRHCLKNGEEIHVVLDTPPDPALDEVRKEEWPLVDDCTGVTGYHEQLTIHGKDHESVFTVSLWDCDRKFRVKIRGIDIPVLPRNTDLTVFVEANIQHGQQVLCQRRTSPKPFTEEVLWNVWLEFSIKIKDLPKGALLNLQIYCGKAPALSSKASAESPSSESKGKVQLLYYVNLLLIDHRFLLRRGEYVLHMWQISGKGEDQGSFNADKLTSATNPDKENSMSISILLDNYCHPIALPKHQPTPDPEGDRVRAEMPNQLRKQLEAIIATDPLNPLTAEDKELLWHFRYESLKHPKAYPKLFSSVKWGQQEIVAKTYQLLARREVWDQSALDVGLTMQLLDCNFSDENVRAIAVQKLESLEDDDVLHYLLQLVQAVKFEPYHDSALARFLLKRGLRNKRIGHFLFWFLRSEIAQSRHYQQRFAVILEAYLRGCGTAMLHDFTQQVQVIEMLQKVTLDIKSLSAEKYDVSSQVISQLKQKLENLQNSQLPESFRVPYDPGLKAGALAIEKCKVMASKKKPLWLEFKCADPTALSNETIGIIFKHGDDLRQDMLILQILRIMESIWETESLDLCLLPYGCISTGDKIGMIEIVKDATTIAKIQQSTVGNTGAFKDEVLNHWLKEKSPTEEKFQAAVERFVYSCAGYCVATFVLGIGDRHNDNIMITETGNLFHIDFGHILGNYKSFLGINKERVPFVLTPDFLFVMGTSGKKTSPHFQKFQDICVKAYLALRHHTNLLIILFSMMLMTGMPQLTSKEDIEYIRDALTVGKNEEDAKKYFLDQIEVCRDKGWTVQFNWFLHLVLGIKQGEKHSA

For the compound `COc1cc(F)c2[nH]c(-c3c(C)nn(C)c3C)c(/C=C3\Oc4ccc(NC(=O)NCCN(C)C)cc4C3=O)c2c1` [Compound 716, 1-[2-(dimethylamino)ethyl]-3-[(2Z)-2-{[7-fluoro-5-methoxy-2-(1,3,5-trimethyl-1H-pyrazol-4-yl)-1H-indol-3-yl]methylidene}-3-oxo-2,3-dihydro-1-benzofuran-5-yl]urea], the negative logarithm of the IC50 (pIC50) at PI3K-alpha is 9.10; at human TOR it was 7.64; on PI3K-gamma, 8.44.
Consider `Cn1cc(/C=C2\Oc3cc(O)cc(O)c3C2=O)c2c(-c3ccc(NC(=O)N4CCOCC4)cc3)cccc21` [Example 404, N-(4-{3-[(Z)-(4,6-dihydroxy-3-oxo-1-benzofuran-2(3H)-ylidene)methyl]-1-methyl-1H-indol-4-yl}phenyl)morpholine-4-carboxamide], for which the results for the pIC50 on PI3K-alpha, at human TOR and against PI3K-gamma were 6.03, 7.21 and 5.78, respectively.
In the same order, the values of `CCn1c(C)c(/C=C2\Oc3ccc(NC(=O)Nc4ccc(OCCN(C)C)cc4)cc3C2=O)c2cc(OC)ccc21` [Compound 667, 1-{4-[2-(dimethylamino)ethoxy]phenyl}-3-{(2Z)-2-[(1-ethyl-5-methoxy-2-methyl-1H-indol-3-yl)methylidene]-3-oxo-2,3-dihydro-1-benzofuran-5-yl}urea] are 8.73, 6.82 and 7.95.
In the same order, the values of `Cn1c(-c2ccc(Cl)cc2)c(C=C2Oc3cc(O)cc(O)c3C2=O)c2ccccc21` [Example 201, 2-{[2-(4-chlorophenyl)-1-methyl-1H-indol-3-yl]methylene}-4,6-dihydroxy-1-benzofuran-3(2H)-one] are 6.15, 6.92 and 5.26.
With `CNCCn1c(-c2c(C)nn(C)c2C)c(/C=C2\Oc3ccc(NC(=O)NC)cc3C2=O)c2cc(OC)ccc21` [Compound 672, 1-[(2Z)-2-({5-methoxy-1-[2-(methylamino)ethyl]-2-(1,3,5-trimethyl-1H-pyrazol-4-yl)-1H-indol-3-yl}methylidene)-3-oxo-2,3-dihydro-1-benzofuran-5-yl]-3-methylurea], the pIC50 is 7.98 on PI3K-alpha, 7.57 at human TOR and 6.75 against PI3K-gamma.
In the same order, the values of `COC(=O)Nc1ccc(-c2cccc3c2c(/C=C2\Oc4cc(O)cc(O)c4C2=O)cn3C)cc1` [Example 391, Methyl (4-{3-[(Z)-(4,6-Dihydroxy-3-oxo-1-benzofuran-2(3H)-ylidene)methyl]-1-methyl-1H-indol-4-yl}phenyl)carbamate] are 5.94, 7.41 and 5.62.
In the case of `CNC(=O)Nc1ccc2c(c1)C(=O)/C(=C/c1c(-c3c(C)nn(C)c3C)[nH]c3c(F)c(F)c(OC)cc13)O2` [Compound 713, 1-[(2Z)-2-{[6,7-difluoro-5-methoxy-2-(1,3,5-trimethyl-1H-pyrazol-4-yl)-1H-indol-3-yl]methylidene}-3-oxo-2,3-dihydro-1-benzofuran-5-yl]-3-methylurea], the pIC50 on PI3K-alpha is 7.85; on human TOR, 7.35; against PI3K-gamma, 7.15.
In the same order, the values of `Cn1c(-c2ccncc2)c(C=C2Oc3cc(O)cc(O)c3C2=O)c2ccccc21` [Example 190, 4,6-dihydroxy-2-[(1-methyl-2-pyridin-4-y1-1H-indol-3-yl)methylene]-1-benzofuran-3(2H)-one] are 5.67, 6.92 and 5.07.
In the same order, the values of `CCn1c(C)c(/C=C2\Oc3ccc(NC(=O)Nc4ccc(N(C)CCN(C)C)cc4)cc3C2=O)c2cc(OC)ccc21` [Compound 652, 1-(4-{[2-(dimethylamino)ethyl](methyl)amino}phenyl)-3-{(2Z)-2-[(1-ethyl-5-methoxy-2-methyl-1H-indol-3-yl)methylene]-3-oxo-2,3-dihydro-1-benzofuran-5-yl}urea] are 8.46, 6.87 and 7.74.
Turning to `CNC(=O)Nc1ccc(-c2cccc3c2c(/C=C2\Oc4cc(O)cc(O)c4C2=O)cn3C)cc1` [Example 393, 1-(4-{3-[(Z)-(4,6-Dihydroxy-3-oxo-1-benzofuran-2(3H)-ylidene)methyl]-1-methyl-1H-indol-4-yl}phenyl)-3-methylurea], the pIC50 at PI3K-alpha was 6.22; on human TOR, 7.63; against PI3K-gamma, 5.60.
Regarding `CN(C)c1cccc(-c2cccc3c2c(/C=C2\Oc4cc(O)cc(O)c4C2=O)cn3C)c1` [Example 398, (2Z)-2-({4-[3-(Dimethylamino)phenyl]-1-methyl-1H-indol-3-yl}methylene)-4,6-dihydroxy-1-benzofuran-3(2H)-one], the negative-log IC50 (pIC50) on PI3K-alpha is 5.56; at human TOR it was 6.95; against PI3K-gamma, 5.28.
In the same order, the values of `CNC(=O)Nc1ccc2c(c1)C(=O)/C(=C/c1c(-c3c(C)n[nH]c3C)[nH]c3c(F)cc(OC)cc13)O2` [Compound 714, 1-[(2Z)-2-{[2-(3,5-dimethyl-1H-pyrazol-4-yl)-7-fluoro-5-methoxy-1H-indol-3-yl]methylidene}-3-oxo-2,3-dihydro-1-benzofuran-5-yl]-3-methylurea] are 9.26, more than 9.00 and 8.43.
Regarding `COc1ccc2c(c1)c(/C=C1\Oc3cc(O)ccc3C1=O)c(C)n2CCCN1CCCC1C` (stereo not drawn) [Example 461, (2Z)-6-Hydroxy-2-({5-methoxy-2-methyl-1-[3-(2-methylpyrrolidin-1-yl)propyl]-1H-indol-3-yl}methylene)-1-benzofuran-3(2H)-one], the pIC50 was 7.71 on PI3K-alpha, 4.90 at human TOR and 5.97 against PI3K-gamma.
In the same order, the values of `COc1ccc2c(c1)c(/C=C1\Oc3c(ccc(O)c3F)C1=O)c(C)n2CCCN(C)C` [Example 449, (2Z)-2-({1-[3-(Dimethylamino)propyl]-5-methoxy-2-methyl-1H-indol-3-yl}methylene)-7-fluoro-6-hydroxy-1-benzofuran-3(2H)-one] are 6.78, less than 4.70 and less than 4.96.
As for `Cn1cc(/C=C2\Oc3cc(O)cc(O)c3C2=O)c2c(-c3ccc(C(=O)NCc4ccco4)cc3)cccc21` [Example 399, 4-{3-[(Z)-(4,6-dihydroxy-3-oxo-1-benzofuran-2(3H)-ylidene)methyl]-1-methyl-1H-indol-4-yl}-N-(2-furylmethyl)benzamide], the pIC50 on PI3K-alpha is 6.09; at human TOR, 7.16; against PI3K-gamma, less than 5.00.
As for `CCn1c(C)c(/C=C2\Oc3ccc(NC(=O)Nc4ccc(S(=O)(=O)N5CCN(C)CC5)cc4)cc3C2=O)c2cc(OC)ccc21` [Compound 677, 1-{(2Z)-2-[(1-ethyl-5-methoxy-2-methyl-1H-indol-3-yl)methylidene]-3-oxo-2,3-dihydro-1-benzofuran-5-yl}-3-{4-[(4-methylpiperazin-1-yl)sulfonyl]phenyl}urea], the pIC50 on PI3K-alpha is 7.72; at human TOR, 6.23; at PI3K-gamma, 6.84.
In the same order, the values of `COc1ccc2c(c1)c(/C=C1\Oc3cc(O)c(F)cc3C1=O)c(C)n2CCCN(C)C` [Example 352, (2Z)-2-({1-[3-(Dimethylamino)propyl]-5-methoxy-2-methyl-1H-indol-3-yl}methylene)-5-fluoro-6-hydroxy-1-benzofuran-3(2H)-one] are 6.94, less than 6.10 and 5.41.
As to `COc1ccc2c(c1)c(/C=C1\Oc3cc(CO)ccc3C1=O)cn2CCCN(C)C` [Example 424, (2Z)-2-({1-[3-(dimethylamino)propyl]-5-methoxy-1H-indol-3-yl}methylene)-6-(hydroxymethyl)-1-benzofuran-3(2H)-one], the pIC50 on PI3K-alpha is 5.40; at human TOR, less than 4.70; on PI3K-gamma, less than 5.00.
In the same order, the values of `CNC(=O)Nc1ccc2c(c1)C(=O)/C(=C/c1c(C(=O)NC(C)(C)CO)[nH]c3ccc(OC)cc13)O2` [Compound 622, N-(2-hydroxy-1,1-dimethylethyl)-5-methoxy-3-[(Z)-{5-[(methylcarbamoyl)amino]-3-oxo-1-benzofuran-2(3H)-ylidene}methyl]-1H-indole-2-carboxamide] are 8.10, 7.02 and 7.41.
In the same order, the values of `CNC(=O)Nc1ccc2c(c1)C(=O)/C(=C/c1c(-c3ccc(CN(C)C)cc3)n(CCN3CCN(C)CC3)c3ccc(OC)cc13)O2` [Compound 630, 1-{(2Z)-2-[(2-{4-[(dimethylamino)methyl]phenyl}-5-methoxy-1-[2-(4-methylpiperazin-1-yl)ethyl]-1H-indol-3-yl)methylidene]-3-oxo-2,3-dihydro-1-benzofuran-5-yl}-3-methylurea] are 8.94, 6.70 and 6.80.
Consider `COc1ccc2c(c1)c(/C=C1\Oc3cc(O)ccc3C1=O)c(C1CC1)n2CCCN(C)C` [Example 462, (2Z)-2-({2-Cyclopropyl-1-[3-(dimethylamino)propyl]-5-methoxy-1H-indol-3-yl}methylene)-6-hydroxy-1-benzofuran-3(2H)-one], for which the pIC50 on PI3K-alpha is 7.67; at human TOR it was 6.20; at PI3K-gamma, 5.98.
In the same order, the values of `COc1ccc2[nH]c(C3CCCCC3)c(/C=C3\Oc4ccc(NC(=O)Nc5ccc(C(=O)N(C)CCN(C)C)cc5)cc4C3=O)c2c1` [Compound 688, 4-[({(2Z)-2-[(2-cyclohexyl-5-methoxy-1H-indol-3-yl)methylidene]-3-oxo-2,3-dihydro-1-benzofuran-5-yl}carbamoyl)amino]-N-[2-(dimethylamino)ethyl]-N-methylbenzamide] are 9.52, 8.22 and 8.71.
